Results reported in ChEMBL document CHEMBL3885881, “DrugMatrix”.

Species: Rattus norvegicus
Assay: DrugMatrix - Regimen: Daily Repeat
Type: toxicity, organism-based, Sprague-Dawley
Design: regimen Daily Repeat, gender Male, age 6-8 weeks
Conditions: in vivo, po, route oral GAVAGE, vehicle 100 % SALINE; for ABSOLUTE BASOPHIL / ABSOLUTE EOSINOPHIL / ABSOLUTE LYMPHOCYTE / ABSOLUTE MONOCYTE / ABSOLUTE SEGMENTED NEUTROPHIL / BASOPHIL / EOSINOPHIL / ERYTHROCYTE COUNT / HEMATOCRIT / HEMOGLOBIN / LEUKOCYTE COUNT / LYMPHOCYTE / MEAN CORPUSCULAR HEMOGLOBIN / MEAN CORPUSCULAR HEMOGLOBIN CONCENTRATION / MONOCYTE / NEUTROPHIL / NUCLEATED RED BLOOD CELLS / PLATELET COUNT: tissue Blood; for ALANINE AMINOTRANSFERASE / ALBUMIN / ALKALINE PHOSPHATASE / ASPARTATE AMINOTRANSFERASE / BLOOD UREA NITROGEN / CARBON DIOXIDE / CHOLESTEROL / CREATINE PHOSPHOKINASE / CREATININE / GLUCOSE / LACTATE DEHYDROGENASE / LIPASE / POTASSIUM / SODIUM / TOTAL BILIRUBIN / TOTAL PROTEIN / URIC ACID: tissue Plasma
[1] = 0 mg/kg, 72 h, dose level Control, time 3 day
[2] = 0 mg/kg, 120 h, dose level Control, time 5 day
[3] = 330 mg/kg, 72 h, dose level Low, time 3 day

## Nc1nc2c(ncn2COCCO)c(=O)[nH]1 [ACYCLOVIR]
[1]
  ABSOLUTE BASOPHIL: 0 CELLS/uL
  ABSOLUTE EOSINOPHIL: 37 CELLS/uL
  ABSOLUTE LYMPHOCYTE: 12359.33 CELLS/uL
  ABSOLUTE MONOCYTE: 122.67 CELLS/uL
  ABSOLUTE SEGMENTED NEUTROPHIL: 847.67 CELLS/uL
  BASOPHIL: 0%
  EOSINOPHIL: 0.33%
  ERYTHROCYTE COUNT: 5.75 x10E6/uL
  HEMATOCRIT: 36.08%
  HEMOGLOBIN: 14.07 G/DL
  LEUKOCYTE COUNT: 13.37 x10E3/uL
  LYMPHOCYTE: 92.5%
  MEAN CORPUSCULAR HEMOGLOBIN: 24.47 pg
  MEAN CORPUSCULAR HEMOGLOBIN CONCENTRATION: 38.98 G/DL
  MONOCYTE: 1%
  NEUTROPHIL: 6.17%
  NUCLEATED RED BLOOD CELLS: 0.17 /100WBC
  PLATELET COUNT: 1202.17 x10E3/uL
  ALANINE AMINOTRANSFERASE: 50.67 u/L
  ALBUMIN: 4.13 G/DL
  ALKALINE PHOSPHATASE: 356.33 u/L
  ASPARTATE AMINOTRANSFERASE: 78.17 u/L
  BLOOD UREA NITROGEN: 14.17 mg/dL
  CARBON DIOXIDE: 31.33 mmol/L
  CHOLESTEROL: 76.5 mg/dL
  CREATINE PHOSPHOKINASE: 248.33 u/L
  CREATININE: 0.2 mg/dL
  GLUCOSE: 144 mg/dL
  LACTATE DEHYDROGENASE: 107 u/L
  LIPASE: 9.83 u/L
  POTASSIUM: 6.75 MEQ/L
  SODIUM: 142 MEQ/L
  TOTAL BILIRUBIN: 0.18 mg/dL
  TOTAL PROTEIN: 5.98 G/DL
  URIC ACID: 1.42 mg/dL
[2]
  ABSOLUTE BASOPHIL: 0 CELLS/uL
  ABSOLUTE EOSINOPHIL: 0 CELLS/uL
  ABSOLUTE LYMPHOCYTE: 8681.17 CELLS/uL
  ABSOLUTE MONOCYTE: 79.83 CELLS/uL
  ABSOLUTE SEGMENTED NEUTROPHIL: 689 CELLS/uL
  BASOPHIL: 0%
  EOSINOPHIL: 0%
  ERYTHROCYTE COUNT: 5.49 x10E6/uL
  HEMATOCRIT: 33.55%
  HEMOGLOBIN: 13.1 G/DL
  LEUKOCYTE COUNT: 9.45 x10E3/uL
  LYMPHOCYTE: 92.33%
  MEAN CORPUSCULAR HEMOGLOBIN: 23.92 pg
  MEAN CORPUSCULAR HEMOGLOBIN CONCENTRATION: 39.07 G/DL
  MONOCYTE: 0.67%
  NEUTROPHIL: 7%
  NUCLEATED RED BLOOD CELLS: 0.17 /100WBC
  PLATELET COUNT: 1001.17 x10E3/uL
  ALANINE AMINOTRANSFERASE: 49.33 u/L
  ALBUMIN: 4.07 G/DL
  ALKALINE PHOSPHATASE: 300.33 u/L
  ASPARTATE AMINOTRANSFERASE: 83.5 u/L
  BLOOD UREA NITROGEN: 16 mg/dL
  CARBON DIOXIDE: 29.67 mmol/L
  CHOLESTEROL: 74.33 mg/dL
  CREATINE PHOSPHOKINASE: 489.67 u/L
  CREATININE: 0.35 mg/dL
  GLUCOSE: 151 mg/dL
  LACTATE DEHYDROGENASE: 133.67 u/L
  LIPASE: 11.17 u/L
  POTASSIUM: 5.5 MEQ/L
  SODIUM: 145.7 MEQ/L
  TOTAL BILIRUBIN: 0.2 mg/dL
  TOTAL PROTEIN: 6.05 G/DL
  URIC ACID: 0.68 mg/dL
[3]
  ABSOLUTE BASOPHIL: 0 CELLS/uL
  ABSOLUTE EOSINOPHIL: 0 CELLS/uL
  ABSOLUTE LYMPHOCYTE: 14421.67 CELLS/uL
  ABSOLUTE MONOCYTE: 118.67 CELLS/uL
  ABSOLUTE SEGMENTED NEUTROPHIL: 559.67 CELLS/uL
  BASOPHIL: 0%
  EOSINOPHIL: 0%
  ERYTHROCYTE COUNT: 5.8 x10E6/uL
  HEMATOCRIT: 35.43%
  HEMOGLOBIN: 13.97 G/DL
  LEUKOCYTE COUNT: 15.1 x10E3/uL
  LYMPHOCYTE: 95%
  MEAN CORPUSCULAR HEMOGLOBIN: 24.1 pg
  MEAN CORPUSCULAR HEMOGLOBIN CONCENTRATION: 39.4 G/DL
  MONOCYTE: 0.67%
  NEUTROPHIL: 4.33%
  NUCLEATED RED BLOOD CELLS: 0 /100WBC
  PLATELET COUNT: 1133.33 x10E3/uL
  ALANINE AMINOTRANSFERASE: 50 u/L
  ALBUMIN: 4.3 G/DL
  ALKALINE PHOSPHATASE: 334 u/L
  ASPARTATE AMINOTRANSFERASE: 88.67 u/L
  BLOOD UREA NITROGEN: 17.33 mg/dL
  CARBON DIOXIDE: 25.67 mmol/L
  CHOLESTEROL: 70 mg/dL
  CREATINE PHOSPHOKINASE: 328.33 u/L
  CREATININE: 0.34 mg/dL
  GLUCOSE: 183 mg/dL
  LACTATE DEHYDROGENASE: 177.67 u/L
  LIPASE: 10.33 u/L
  POTASSIUM: 5.7 MEQ/L
  SODIUM: 144.1 MEQ/L
  TOTAL BILIRUBIN: 0.13 mg/dL
  TOTAL PROTEIN: 6.17 G/DL
  URIC ACID: 2.2 mg/dL
